Assay results as given in ChEMBL document CHEMBL6071189, “Exploring the 1-(4-Nitrophenyl)-3-arylprop-2-en-1-one Scaffold for the Selective Inhibition of Monoamine Oxidase B” (ACS Med Chem Lett, 2024).

Experiments:
[1] = target: T1, Amine oxidase [flavin-containing] B (Homo sapiens, UniProt P27338); assay: Inhibition of recombinant human MAO-B using tyramine hydrochloride as substrate preincubated for 5 mins followed by substrate addition and measured after 5 mins in presence of horse radish peroxidase by Ampliflu Red based fluorescence microplate reader
T1 sequence (P27338 whole entry): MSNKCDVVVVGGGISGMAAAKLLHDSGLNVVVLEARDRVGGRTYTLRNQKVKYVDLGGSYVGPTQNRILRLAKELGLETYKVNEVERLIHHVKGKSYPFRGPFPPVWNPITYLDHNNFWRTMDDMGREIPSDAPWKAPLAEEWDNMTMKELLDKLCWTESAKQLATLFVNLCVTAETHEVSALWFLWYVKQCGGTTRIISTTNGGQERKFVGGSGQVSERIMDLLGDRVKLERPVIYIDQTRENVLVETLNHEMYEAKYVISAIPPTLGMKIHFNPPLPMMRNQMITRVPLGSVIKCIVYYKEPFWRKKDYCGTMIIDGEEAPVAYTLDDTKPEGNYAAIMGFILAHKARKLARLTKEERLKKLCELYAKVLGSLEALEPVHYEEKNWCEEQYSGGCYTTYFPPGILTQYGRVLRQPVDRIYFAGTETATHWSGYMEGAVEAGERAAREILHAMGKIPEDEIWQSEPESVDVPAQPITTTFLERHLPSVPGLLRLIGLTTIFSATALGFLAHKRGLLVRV

Homo sapiens = organism: Homo sapiens; assay: Selectivity index, ratio of IC50 for inhibition of recombinant human MAO-A to IC50 for inhibition of recombinant human MAO-B
[2] = target: T2, Amine oxidase [flavin-containing] A (Homo sapiens, UniProt P21397); assay: Inhibition of recombinant human MAO-A using tyramine hydrochloride as substrate preincubated for 5 mins followed by substrate addition and measured after 5 mins in presence of horse radish peroxidase by Ampliflu Red based fluorescence microplate reader
T2 sequence (P21397 whole entry): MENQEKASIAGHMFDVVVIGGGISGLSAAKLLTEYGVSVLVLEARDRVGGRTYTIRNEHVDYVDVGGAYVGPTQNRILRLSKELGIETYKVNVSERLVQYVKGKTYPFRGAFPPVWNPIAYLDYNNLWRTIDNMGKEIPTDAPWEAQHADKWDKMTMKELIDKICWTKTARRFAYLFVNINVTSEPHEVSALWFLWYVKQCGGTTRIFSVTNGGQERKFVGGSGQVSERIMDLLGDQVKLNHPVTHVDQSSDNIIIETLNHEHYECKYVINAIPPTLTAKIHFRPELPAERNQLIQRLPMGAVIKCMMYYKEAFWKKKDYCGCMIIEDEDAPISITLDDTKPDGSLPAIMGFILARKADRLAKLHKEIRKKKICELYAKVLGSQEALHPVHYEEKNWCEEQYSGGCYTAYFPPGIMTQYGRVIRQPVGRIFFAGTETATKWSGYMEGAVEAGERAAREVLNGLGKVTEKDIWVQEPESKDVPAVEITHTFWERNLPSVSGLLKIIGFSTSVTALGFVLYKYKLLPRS

| Structure (SMILES) | IC50 [1] | Ratio IC50 (Homo sapiens) | IC50 [2] |
| --- | --- | --- | --- |
| O=C(/C=C/c1ccc(F)cc1)c1ccc([N+](=O)[O-])cc1 | 48 nM | 160 | 7800 nM |
| COc1ccc(/C=C/C(=O)c2ccc([N+](=O)[O-])cc2)cc1 | 93 nM | 290 | 27000 nM |
| O=C(/C=C/c1ccc2ccccc2c1)c1ccc([N+](=O)[O-])cc1 | 21 nM | 620 | 13000 nM |
| Cc1ccccc1/C=C/C(=O)c1ccc([N+](=O)[O-])cc1 | 120 nM | 740 | 89000 nM |
| Cc1ccc(/C=C/C(=O)c2ccc([N+](=O)[O-])cc2)cc1 | 13 nM | 210 | 2700 nM |

Further lines, results first:

| IC50 [1] | Ratio IC50 (Homo sapiens) | IC50 [2] | Structure (SMILES) |
| --- | --- | --- | --- |
| 10 nM | 5200 | 52000 nM | O=C(/C=C/c1ccc(Cl)cc1)c1ccc([N+](=O)[O-])cc1 |
| 2.2 nM | 27000 | 59000 nM | O=C(/C=C/c1ccc(Cl)c(Cl)c1)c1ccc([N+](=O)[O-])cc1 |
